According to ChEMBL document CHEMBL1128112, “The Abu-pocket paradox of the cyclophilin a / cyclosporin a interaction” (1995):

Species: Mus musculus
Test: Compound was tested in vitro for its immunosuppressive potential using mouse mixed lymphocyte reaction (MLR_M) with relative to Cyclophilin A
Type: functional

C/C=C/C[C@@H](C)[C@@H](O)[C@H]1C(=O)N[C@@H](C(O)Cc2ccccc2)C(=O)N(C)CC(=O)N(C)[C@@H](CC(C)C)C(=O)N[C@@H](C(C)C)C(=O)N(C)[C@@H](CC(C)C)C(=O)N[C@@H](C)C(=O)N[C@H](C)C(=O)N(C)[C@@H](CC(C)C)C(=O)N(C)[C@@H](CC(C)C)C(=O)N(C)[C@@H](C(C)C)C(=O)N1C (stereo partly specified)
rIC50: 360
